Each molecule was assayed on Raw264.7 cells (assay: Cell number (CellNb) from image analysis of the phenotypic cell-based assay). Conditions: confirmation, 0.2 uM.

Row | SMILES | QIM Confirm CellNb 0.2 uM
1 | O=C(NN1C(=O)c2ccc(Br)cc2C1=O)c1ccncc1 [IPK 000 008 02] | 306.6
2 | Cc1nn(-c2ccccc2)c(Cl)c1/C=N/NC(=O)c1ccccn1 [IPK 000 001 90] | 190.0
3 | O=C(N/N=C\c1ccc(Cl)s1)c1ccncc1 [IPK 000 009 42] | 326.3
4 | O=C(Oc1cccc2cccnc12)c1cccc([N+](=O)[O-])c1 [IPK 000 018 66] | 258.1
5 | O=C(NCCOc1ccccc1Cl)c1cc([N+](=O)[O-])cc([N+](=O)[O-])c1 [IPK 000 027 72] | 267.0
6 | CC1=NN(C(=O)c2ccncc2)C(O)(C(F)(F)F)C1 (stereo not shown) [IPK 000 009 78] | 325.5
7 | O=C1Nc2ccccc2/C1=N/NC(=O)c1ccncc1 [IPK 000 006 35] | 262.8
8 | O=C(N/N=C/c1ccccc1F)c1ccncc1 [IPK 000 013 71] | 476.5

Same assay, conditions: confirmation, 2 uM

Row | SMILES | QIM Confirm CellNb 2 uM
9 | O=C(NN1C(=O)c2ccc(Br)cc2C1=O)c1ccncc1 [IPK 000 008 02] | 218.8
10 | Cc1nn(-c2ccccc2)c(Cl)c1/C=N/NC(=O)c1ccccn1 [IPK 000 001 90] | 173.6
11 | O=C(N/N=C\c1ccc(Cl)s1)c1ccncc1 [IPK 000 009 42] | 473.5
12 | O=C(Oc1cccc2cccnc12)c1cccc([N+](=O)[O-])c1 [IPK 000 018 66] | 296.6
13 | O=C(NCCOc1ccccc1Cl)c1cc([N+](=O)[O-])cc([N+](=O)[O-])c1 [IPK 000 027 72] | 440.4
14 | CC1=NN(C(=O)c2ccncc2)C(O)(C(F)(F)F)C1 (stereo not shown) [IPK 000 009 78] | 414.4
15 | O=C1Nc2ccccc2/C1=N/NC(=O)c1ccncc1 [IPK 000 006 35] | 320.9
16 | O=C(N/N=C/c1ccccc1F)c1ccncc1 [IPK 000 013 71] | 544.3

Same assay, conditions: confirmation, 20 uM

Row | SMILES | QIM Confirm CellNb 20 uM
17 | O=C(NN1C(=O)c2ccc(Br)cc2C1=O)c1ccncc1 [IPK 000 008 02] | 484.5
18 | Cc1nn(-c2ccccc2)c(Cl)c1/C=N/NC(=O)c1ccccn1 [IPK 000 001 90] | 317.6
19 | O=C(N/N=C\c1ccc(Cl)s1)c1ccncc1 [IPK 000 009 42] | 255.0
20 | O=C(Oc1cccc2cccnc12)c1cccc([N+](=O)[O-])c1 [IPK 000 018 66] | 130.4
21 | O=C(NCCOc1ccccc1Cl)c1cc([N+](=O)[O-])cc([N+](=O)[O-])c1 [IPK 000 027 72] | 238.1
22 | CC1=NN(C(=O)c2ccncc2)C(O)(C(F)(F)F)C1 (stereo not shown) [IPK 000 009 78] | 376.1
23 | O=C1Nc2ccccc2/C1=N/NC(=O)c1ccncc1 [IPK 000 006 35] | 328.8
24 | O=C(N/N=C/c1ccccc1F)c1ccncc1 [IPK 000 013 71] | 377.4

Same assay, conditions: primary screen, 20 μM

Row | SMILES | Primary QIM CellNb
25 | O=C(NN1C(=O)c2ccc(Br)cc2C1=O)c1ccncc1 [IPK 000 008 02] | 305.8
26 | Cc1nn(-c2ccccc2)c(Cl)c1/C=N/NC(=O)c1ccccn1 [IPK 000 001 90] | 435.5
27 | O=C(N/N=C\c1ccc(Cl)s1)c1ccncc1 [IPK 000 009 42] | 376.5
28 | O=C(Oc1cccc2cccnc12)c1cccc([N+](=O)[O-])c1 [IPK 000 018 66] | 63.3
29 | O=C(NCCOc1ccccc1Cl)c1cc([N+](=O)[O-])cc([N+](=O)[O-])c1 [IPK 000 027 72] | 333.3
30 | CC1=NN(C(=O)c2ccncc2)C(O)(C(F)(F)F)C1 (stereo not shown) [IPK 000 009 78] | 454.5
31 | O=C1Nc2ccccc2/C1=N/NC(=O)c1ccncc1 [IPK 000 006 35] | 424.3
32 | O=C(N/N=C/c1ccccc1F)c1ccncc1 [IPK 000 013 71] | 358.8

These molecules were tested on M. tuberculosis H37Rv-GFP (assay: microbe, parasite or virus in culture). Conditions: Mycobacterium tuberculosis, read-out: QUM Confirm % Inhibition 0.2 uM.
Type: cell-based

Row | SMILES | inhibition at 0.2 µM
33 | O=C(NN1C(=O)c2ccc(Br)cc2C1=O)c1ccncc1 [IPK 000 008 02] | 36.4%
34 | Cc1nn(-c2ccccc2)c(Cl)c1/C=N/NC(=O)c1ccccn1 [IPK 000 001 90] | 34.6%
35 | O=C(N/N=C\c1ccc(Cl)s1)c1ccncc1 [IPK 000 009 42] | 28.8%
36 | O=C(Oc1cccc2cccnc12)c1cccc([N+](=O)[O-])c1 [IPK 000 018 66] | 39.3%
37 | O=C(NCCOc1ccccc1Cl)c1cc([N+](=O)[O-])cc([N+](=O)[O-])c1 [IPK 000 027 72] | 35.1%
38 | CC1=NN(C(=O)c2ccncc2)C(O)(C(F)(F)F)C1 (stereo not shown) [IPK 000 009 78] | 30%
39 | O=C1Nc2ccccc2/C1=N/NC(=O)c1ccncc1 [IPK 000 006 35] | 23.7%
40 | O=C(N/N=C/c1ccccc1F)c1ccncc1 [IPK 000 013 71] | 51.6%

Same assay, conditions: Mycobacterium tuberculosis, read-out: QUM Confirm % Inhibition 2 uM

Row | SMILES | inhibition at 2 µM
41 | O=C(NN1C(=O)c2ccc(Br)cc2C1=O)c1ccncc1 [IPK 000 008 02] | 31.9%
42 | Cc1nn(-c2ccccc2)c(Cl)c1/C=N/NC(=O)c1ccccn1 [IPK 000 001 90] | 29.4%
43 | O=C(N/N=C\c1ccc(Cl)s1)c1ccncc1 [IPK 000 009 42] | 50.3%
44 | O=C(Oc1cccc2cccnc12)c1cccc([N+](=O)[O-])c1 [IPK 000 018 66] | 72%
45 | O=C(NCCOc1ccccc1Cl)c1cc([N+](=O)[O-])cc([N+](=O)[O-])c1 [IPK 000 027 72] | 97.6%
46 | CC1=NN(C(=O)c2ccncc2)C(O)(C(F)(F)F)C1 (stereo not shown) [IPK 000 009 78] | 61.1%
47 | O=C1Nc2ccccc2/C1=N/NC(=O)c1ccncc1 [IPK 000 006 35] | 41.9%
48 | O=C(N/N=C/c1ccccc1F)c1ccncc1 [IPK 000 013 71] | 92.2%

Same assay, conditions: Mycobacterium tuberculosis, read-out: QUM Confirm % Inhibition 20 uM

Row | SMILES | inhibition at 20 µM
49 | O=C(NN1C(=O)c2ccc(Br)cc2C1=O)c1ccncc1 [IPK 000 008 02] | 98.2%
50 | Cc1nn(-c2ccccc2)c(Cl)c1/C=N/NC(=O)c1ccccn1 [IPK 000 001 90] | 42.3%
51 | O=C(N/N=C\c1ccc(Cl)s1)c1ccncc1 [IPK 000 009 42] | 100%
52 | O=C(Oc1cccc2cccnc12)c1cccc([N+](=O)[O-])c1 [IPK 000 018 66] | 99.6%
53 | O=C(NCCOc1ccccc1Cl)c1cc([N+](=O)[O-])cc([N+](=O)[O-])c1 [IPK 000 027 72] | 101%
54 | CC1=NN(C(=O)c2ccncc2)C(O)(C(F)(F)F)C1 (stereo not shown) [IPK 000 009 78] | 100%
55 | O=C1Nc2ccccc2/C1=N/NC(=O)c1ccncc1 [IPK 000 006 35] | 43.4%
56 | O=C(N/N=C/c1ccccc1F)c1ccncc1 [IPK 000 013 71] | 68.4%

These molecules were tested on M. tuberculosis H37Rv-GFP (assay: microbe, parasite or virus in culture). Conditions: Mycobacterium tuberculosis, H37RV, Macrophage; confirmation, 0.2 uM, intracellular; read-out: QIM Confirm % Inhibition 0.2 uM.
Type: cell-based, Mycobacterium tuberculosis

Row | SMILES | inhibition at 0.2 µM
57 | O=C(NN1C(=O)c2ccc(Br)cc2C1=O)c1ccncc1 [IPK 000 008 02] | 0.7%
58 | Cc1nn(-c2ccccc2)c(Cl)c1/C=N/NC(=O)c1ccccn1 [IPK 000 001 90] | 12.7%
59 | O=C(N/N=C\c1ccc(Cl)s1)c1ccncc1 [IPK 000 009 42] | 21.3%
60 | O=C(Oc1cccc2cccnc12)c1cccc([N+](=O)[O-])c1 [IPK 000 018 66] | 8.6%
61 | O=C(NCCOc1ccccc1Cl)c1cc([N+](=O)[O-])cc([N+](=O)[O-])c1 [IPK 000 027 72] | 29.3%
62 | CC1=NN(C(=O)c2ccncc2)C(O)(C(F)(F)F)C1 (stereo not shown) [IPK 000 009 78] | 17%
63 | O=C1Nc2ccccc2/C1=N/NC(=O)c1ccncc1 [IPK 000 006 35] | 17.7%
64 | O=C(N/N=C/c1ccccc1F)c1ccncc1 [IPK 000 013 71] | 86.3%

Same assay, conditions: Mycobacterium tuberculosis, H37RV, Macrophage; confirmation, 2 uM, intracellular; read-out: QIM Confirm % Inhibition 2 uM

Row | SMILES | inhibition at 2 µM
65 | O=C(NN1C(=O)c2ccc(Br)cc2C1=O)c1ccncc1 [IPK 000 008 02] | 9.3%
66 | Cc1nn(-c2ccccc2)c(Cl)c1/C=N/NC(=O)c1ccccn1 [IPK 000 001 90] | 13.2%
67 | O=C(N/N=C\c1ccc(Cl)s1)c1ccncc1 [IPK 000 009 42] | 92.3%
68 | O=C(Oc1cccc2cccnc12)c1cccc([N+](=O)[O-])c1 [IPK 000 018 66] | 0.4%
69 | O=C(NCCOc1ccccc1Cl)c1cc([N+](=O)[O-])cc([N+](=O)[O-])c1 [IPK 000 027 72] | 77.7%
70 | CC1=NN(C(=O)c2ccncc2)C(O)(C(F)(F)F)C1 (stereo not shown) [IPK 000 009 78] | 50.2%
71 | O=C1Nc2ccccc2/C1=N/NC(=O)c1ccncc1 [IPK 000 006 35] | 22.8%
72 | O=C(N/N=C/c1ccccc1F)c1ccncc1 [IPK 000 013 71] | 105%

Same assay, conditions: Mycobacterium tuberculosis, H37RV, Macrophage; confirmation, 20 uM; read-out: QIM Confirm % Inhibition 20 uM

Row | SMILES | inhibition at 20 µM
73 | O=C(NN1C(=O)c2ccc(Br)cc2C1=O)c1ccncc1 [IPK 000 008 02] | 98%
74 | Cc1nn(-c2ccccc2)c(Cl)c1/C=N/NC(=O)c1ccccn1 [IPK 000 001 90] | 96.5%
75 | O=C(N/N=C\c1ccc(Cl)s1)c1ccncc1 [IPK 000 009 42] | 97.9%
76 | O=C(Oc1cccc2cccnc12)c1cccc([N+](=O)[O-])c1 [IPK 000 018 66] | 16.7%
77 | O=C(NCCOc1ccccc1Cl)c1cc([N+](=O)[O-])cc([N+](=O)[O-])c1 [IPK 000 027 72] | 100%
78 | CC1=NN(C(=O)c2ccncc2)C(O)(C(F)(F)F)C1 (stereo not shown) [IPK 000 009 78] | 88.6%
79 | O=C1Nc2ccccc2/C1=N/NC(=O)c1ccncc1 [IPK 000 006 35] | 65.2%
80 | O=C(N/N=C/c1ccccc1F)c1ccncc1 [IPK 000 013 71] | 97.5%

Same assay, conditions: Mycobacterium tuberculosis, H37RV, Macrophage; primary screen, 20 μM; read-out: Primary QIM % Inhibition

Row | SMILES | inhibition at 20 µM
81 | O=C(NN1C(=O)c2ccc(Br)cc2C1=O)c1ccncc1 [IPK 000 008 02] | 83.2%
82 | Cc1nn(-c2ccccc2)c(Cl)c1/C=N/NC(=O)c1ccccn1 [IPK 000 001 90] | 91.9%
83 | O=C(N/N=C\c1ccc(Cl)s1)c1ccncc1 [IPK 000 009 42] | 93.1%
84 | O=C(Oc1cccc2cccnc12)c1cccc([N+](=O)[O-])c1 [IPK 000 018 66] | -26.8%
85 | O=C(NCCOc1ccccc1Cl)c1cc([N+](=O)[O-])cc([N+](=O)[O-])c1 [IPK 000 027 72] | 82.6%
86 | CC1=NN(C(=O)c2ccncc2)C(O)(C(F)(F)F)C1 (stereo not shown) [IPK 000 009 78] | 103%
87 | O=C1Nc2ccccc2/C1=N/NC(=O)c1ccncc1 [IPK 000 006 35] | 97.6%
88 | O=C(N/N=C/c1ccccc1F)c1ccncc1 [IPK 000 013 71] | 103%

Reference: US8785452B2, “Anti-infective compounds” (priority 2008, dated 2014)
